In patent publication US8288315B2, “Fungicide mixtures” (BASF SE, priority 2007, dated 2012):

Tests used:
Botrytis cinerea = test: Activity against gray mold on bell pepper leaves caused by Botrytis cinerea, 1 day protective application; format: in vivo; settings: bell pepper seedlings, sprayed 1 day before inoculation, rated after 5 days, efficacy as % of untreated control
Experimental: (§1) The mixture was then made up with water to 100 ml.
The next day, the treated plants were inoculated with a spore suspension of Botrytis cinerea in a 2% strength biomalt solution. The test plants were then placed in a dark climatized chamber at 22 to 24° C. and high atmospheric humidity. After 5 days, the extent of the fungal infection on the leaves could be determined visually in %.
(§2) The visually determined percentages of infected leaf areas were converted into efficacies as % of the untreated control:
(§3) The efficacy (E) is calculated as follows using Abbot's formula: E=(1−α/β)·100 • α corresponds to the fungicidal infection of the treated plants in % and • β corresponds to the fungicidal infection of the untreated (control) plants in %
(§4) An efficacy of 0 means that the infection level of the treated plants corresponds to that of the untreated control plants; an efficacy of 100 means that the treated plants are not infected.

Puccinia recondita = test: Protective activity against Puccinia recondita on wheat (brown rust of wheat); format: in vivo; settings: wheat seedlings, sprayed 1 day before inoculation, rated after a further 7 days, efficacy as % of untreated control
Experimental: as §1
The next day, the treated plants were inoculated with a spore suspension of brown rust of wheat (Puccinia recondita). The plants were then placed in a chamber with high atmospheric humidity (90 to 95%) at 20 to 22° C. for 24 hours. During this time, the spores germinated and the germ tubes penetrated into the leaf tissue. The following day, the test plants were returned to the greenhouse and cultivated at temperatures between 20 and 22° C. and at 65 to 70% relative atmospheric humidity for a further 7 days. The extent of the rust fungus development on the leaves was then determined visually.
as §2, §3, §4

Structure (SMILES) | Observed effect (%) (Botrytis cinerea; 0.016 ppm) | Observed effect (%) (Puccinia recondita; 0.25 ppm) | Observed effect (%) (Botrytis cinerea; 0.25 ppm) | Observed effect (%) (Puccinia recondita; 4 ppm)
CC1(C)CCC(Cc2ccc(Cl)cc2)C1(O)Cn1cncn1 (stereo not drawn) [Metconazole, (1RS,5RS;1RS,5SR)-5-(4-chlorobenzyl)-2,2-dimethyl-1-(1H-1,2,4-triazol-1-ylmethyl)cyclopentanol] | 0 | 13 | – | –
CCCN(CCOc1c(Cl)cc(Cl)cc1Cl)C(=O)n1ccnc1 [Prochloraz, N-propyl-N-[2-(2,4,6-trichlorophenoxy)ethyl]imidazole-1-carboxamide] | – | – | 0 | 0
